Assays:
Assay in all cases: relative viability (nuclei count vs DMSO), 5 days (fraction); higher = more cells survive
AGI-6780 + Alpelisib = compound: O=C(Nc1cccc(C(F)(F)F)c1)Nc1cc(S(=O)(=O)NC2CC2)ccc1-c1ccsc1 [AGI-6780] + Cc1nc(NC(=O)N2CCC[C@H]2C(N)=O)sc1-c1ccnc(C(C)(C)C(F)(F)F)c1 [Alpelisib] (partner 2 µM)
Summary of the method: (§1)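 For relative viability, nuclei counts in treated wells were divided by those in vehicle wells. Lung cancer cell lines had been pin-tool dosed in 1536-well plates the day after seeding and cultured for 5 days, then fixed and stained in one step (final 0.05% Triton X-100, 1% formaldehyde, 1 ug/ml Hoechst) and imaged at 4×. Doses were one drug alone or a fixed anchor-drug dose plus five library-drug doses (not always all listed) in √10 steps, and values are duplicate-plate medians.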

AGI-6780 + Luminespib = compound: O=C(Nc1cccc(C(F)(F)F)c1)Nc1cc(S(=O)(=O)NC2CC2)ccc1-c1ccsc1 [AGI-6780] + CCNC(=O)c1noc(-c2cc(C(C)C)c(O)cc2O)c1-c1ccc(CN2CCOCC2)cc1 [Luminespib] (partner 0.01 µM)
Summary of the method: as §1

AGI-6780 + Tozasertib = compound: O=C(Nc1cccc(C(F)(F)F)c1)Nc1cc(S(=O)(=O)NC2CC2)ccc1-c1ccsc1 [AGI-6780] + Cc1cc(Nc2cc(N3CCN(C)CC3)nc(Sc3ccc(NC(=O)C4CC4)cc3)n2)n[nH]1 [Tozasertib] (partner 0.1 µM)
Summary of the method: as §1

AGI-6780 + Dasatinib = compound: O=C(Nc1cccc(C(F)(F)F)c1)Nc1cc(S(=O)(=O)NC2CC2)ccc1-c1ccsc1 [AGI-6780] + Cc1nc(Nc2ncc(C(=O)Nc3c(C)cccc3Cl)s2)cc(N2CCN(CCO)CC2)n1 [Dasatinib] (partner 0.075 µM)
Summary of the method: as §1

Cell Line	relative viability (AGI-6780 + Alpelisib; first compound 0.08 µM)	relative viability (AGI-6780 + Alpelisib; first compound 0.253 µM)	relative viability (AGI-6780 + Alpelisib; first compound 0.8 µM)	relative viability (AGI-6780 + Alpelisib; first compound 8 µM)	relative viability (AGI-6780 + Luminespib; first compound 0.08 µM)	relative viability (AGI-6780 + Luminespib; first compound 0.253 µM)	relative viability (AGI-6780 + Luminespib; first compound 0.8 µM)	relative viability (AGI-6780 + Luminespib; first compound 2.53 µM)	relative viability (AGI-6780 + Luminespib; first compound 8 µM)	relative viability (AGI-6780 + Tozasertib; first compound 0.08 µM)	relative viability (AGI-6780 + Tozasertib; first compound 0.253 µM)	relative viability (AGI-6780 + Tozasertib; first compound 0.8 µM)	relative viability (AGI-6780 + Tozasertib; first compound 2.53 µM)	relative viability (AGI-6780 + Tozasertib; first compound 8 µM)	relative viability (AGI-6780 + Dasatinib; first compound 0.08 µM)	relative viability (AGI-6780 + Dasatinib; first compound 0.253 µM)	relative viability (AGI-6780 + Dasatinib; first compound 0.8 µM)	relative viability (AGI-6780 + Dasatinib; first compound 2.53 µM)	relative viability (AGI-6780 + Dasatinib; first compound 8 µM)	relative viability (AGI-6780 + Alpelisib; first compound 2.53 µM)
NCI-H1734	0.752	0.705	0.671	0.733	0.216	0.233	0.201	0.19	0.177	0.22	0.294	0.246	0.242	0.268	0.459	0.461	0.473	0.347	0.435	
NCI-H1755	0.991	0.936	0.948	0.898	0.37	0.49	0.518	0.304	0.42	0.664	0.627	0.517	0.436	0.557	0.479	0.502	0.456	0.351	0.422	0.83
NCI-H1793	0.744	0.831	0.943	0.675	0.211	0.162	0.175	0.155	0.207	0.355	0.318	0.351	0.332	0.312	0.399	0.389	0.455	0.263	0.41	0.562
NCI-H1915	1.02	0.963	1.04	1.04	0.781	0.894	0.879	0.698	0.836	0.432	0.418	0.469	0.282	0.428	0.358	0.333	0.344	0.249	0.304	0.992
NCI-H1944	0.862	0.886	0.821	0.767	0.814	0.711	0.709		0.768	0.252	0.27	0.247		0.242	0.239	0.232	0.233		0.233	0.7
NCI-H1975	0.71	0.62	0.653	0.523	0.259	0.184	0.222	0.263	0.161	0.9	0.819	0.738		0.474	0.388	0.345	0.395		0.312	0.526
NCI-H1993	0.788	0.675	0.736	0.693	0.747	0.913	0.705	0.642	0.857	0.547	0.588	0.623	0.464	0.536	0.661	0.724	0.713	0.485	0.549	0.653
NCI-H2009	1.21	1.12	1.17	1.25	1.01	1.04	0.994	0.988	0.946	0.605	0.725	0.845	0.701	0.683	0.27	0.309	0.258	0.312	0.32	1.13

Reference: the supplement of paper PMC10307832
